Two compounds from patent US9096544B2, “Therapeutic compounds” (Wayne State University, priority 2009, dated 2015) can be followed below.

Molecules are shown by their SMILES.

The subject of one test is FFMA-AML cells. Kind of test: Test B: apoptosis of FFMA-AML cells (acridine orange/ethidium bromide, nuclear fragmentation). It is filed as cell-based, human. As to conditions: for EC50: Homo sapiens, nuclear fragmentation, FIG. 2A/B (96 h), read-out: ED50 of apoptosis induction. As to the method: FIG. 2 illustrates apoptosis induction in FFMA-AML and TF(v-SRC) cells by 3-Cl-AHPC and compound 16. Cells were seeded at 1×10^4 cells/ml, grown for 24 h and then exposed to 1 μM compound 16 or 3-Cl-AHPC A) at various concentrations of the compound for 96 h and B) for increasing times of exposure. C) Induction of apoptosis by 3-Cl-AHPC, all-trans-retinoic acid, 9-cis-retinoic acid and TTNPB in FFMA-AML and TF(v-SRC) cells. The percentage of apoptotic cells was determined using acridine orange and ethidium bromide staining to determine nuclear fragmentation as described in the general biochemical and pharmacological materials and methods. The error bars represent the mean of three separate determinations +/− the standard deviation (SD).
FFMA-AML cells were obtained from a patient with a diagnosis of AML as indicated by the immunophenotyping described in Table 1. This patient was refractory to the chemotherapy regimens consisting of cytosine arabinoside given with daunomycin as well as high-dose cytosine arabinoside. Peripheral blood samples were obtained from the patient utilizing a Wayne State University Institutional Review Board approved protocol and the leukemic blasts were isolated utilizing Ficoll hypaque. […]
(§1) Apoptosis of cells was determined by (1) acridine orange and ethidium bromide-staining to assess cells with nuclear fragmentation and chromatin condensation as previously described (Farhana L. et al., Cancer Res. 2006; 65:4909-4917) and (2) flow cytometry assessing Annexin V-FITC binding together with propidium iodide staining (Annexin V-FITC apoptosis Detection kit 1, BD Biosciences, San Diego, Calif.). Data acquisition was done on a FACS Calibur flow cytometer (BD) and analyzed with CellQuest software. […]

The test system of the next test is TF(v-SRC) cells. The experiment in a line: Annexin V-FITC binding by flow cytometry, TF(v-SRC) cells. Format: cell-based. The conditions noted are these: 1 μM, varying times. As to the method:
FIG. 3 illustrates the induction of apoptosis and cell death as assessed using Annexin V-FITC binding together with propidium iodide (PI) staining. FFMA-AML and TF(vSRC) cells were exposed to 1 μM 3-Cl-AHPC or compound 16. A) Apoptosis in FFMA-AML and TF(vSRC) cells following 24 and 48 h ARR exposure, respectively. The plots show the distribution of classes of fluorescence intensity versus cell number. The bottom left quadrant represents live cells (both annexin V-FITC and PI negative); the bottom right quadrant represents early apoptotic cells (annexin V-FITC positive but PI negative); and the top right quadrant represents late apoptotic cells (both annexin V-FITC and PI positive). B) Percentage of early apopotic Annexin V-positive cells at the indicated times. […] (p values of <0.05, <0.01 and <0.001 respectively, as determined by the t test).
as §1

The test system of test [1] is COLO357 cells. The experiment in a line: Test I: apoptosis of COLO357 pancreatic cancer cells (Annexin V-FITC/PI). It is filed as cell-based. As to conditions: 1 μM, 48 h. As to the method: (§2) Pancreatic cancer cell lines (COLO357, PANC-1, Capan-2, AsPc-1 cells and MiaPaCa-2 cells obtained from American Type Culture Collection; ATCC, Rockville, Md.) were treated with 1 μM 3-Cl-AHPC and compound 16 for various times. Apoptosis in cells were analyzed by flow cytometry using Annexin V-FITC binding together with propidium iodide (PI) staining (Annexin V-FITC apoptosis Detection Kit 1, BD Biosciences, San Diego, Calif.). Data acquisition was done on a FACS Calibur flow cytometer (BD) and analyzed with CellQuest software (BD Biosciences). 3-Cl-AHPC and compound 16 mediated inhibition of cell growth were determined by 3-(4,5-dimethylthiazol-2-yl)-2,5-diphenyltetrazolium bromide (MTT) assay. The cells were seeded on 96-well plates at a density of 4×10^4 cells/well in a volume of 200 μl culture medium. 1 μM AHP3 and 3-Cl-AHPC in DMSO (final concentration 0.1%) were added to the cells for various times. […] After discarding the medium, MTT precipitates were solubilized with 200 μl DMSO and the plates read on a BioTeK Synergy HT (BioTeK Instrument Inc., Vermont) at an absorbance 570 nm. […] The spheroids were stained with acridine orange/ethidium bromide staining and immediately visualized and photographed with fluorescence microscope (OLYMPUS CKX41). […] Then spheroids were visualized and photographed with a fluorescence microscope.

The subject of test [2] is AsPc-1 cells. Kind of test: Test I: apoptosis of AsPc-1 pancreatic cancer cells (Annexin V-FITC/PI). The conditions noted are these: 1 μM, 72 h. Format: cell-based. As to the method: as §2
Test [3] concerns MiaPaCa-2 cells. Kind of test: Test I: apoptosis of MiaPaCa-2 pancreatic cancer cells (Annexin V-FITC/PI). The conditions noted are these: 1 μM, 72 h. It is filed as cell-based. As to the method: as §2
For test [4], the system named is COLO357 cells. The experiment in a line: Test I: growth inhibition of COLO357 cells (MTT). It is filed as cell-based. The conditions noted are these: 1 μM. As to the method: as §2
The subject of test [5] is AsPc-1 cells. The experiment in a line: Test I: growth inhibition of AsPc-1 cells (MTT). Format: cell-based. The conditions noted are these: 1 μM. As to the method: as §2
In test [6] the test system is MiaPaCa-2 cells. Kind of test: Test I: growth inhibition of MiaPaCa-2 cells (MTT). Format: cell-based. As to conditions: 1 μM. As to the method: as §2

For `O=C(O)C=Cc1ccc(-c2ccc(O)c(C34CC5CC(CC(C5)C3)C4)c2)c(Cl)c1` [Compound 3-Cl-AHPC, 4-[3-(1-adamantyl)-4-hydroxyphenyl]-3-chlorocinnamic acid, reference compound], the cells displaying apoptosis in the test with FFMA-AML cells (FIG. 2C, retinoid values over that noted with the vehicle) is 80%. Besides, the EC50 in the test with FFMA-AML cells was determined as 370 nM. Also, the “annexin V-FITC-positive cells” value with TF(v-SRC) cells is “progressive increase in annexin V-FITC-positive cells with time”. The “cells in which induction of apoptosis was noted” value in the test with COLO357 cells [1] came out at 80%. Further, the induction of apoptosis result in the test on AsPc-1 cells [2] and with MiaPaCa-2 cells [3] was “Apoptosis was also noted” each time. In addition, the inhibition of growth result in the test on COLO357 cells [4], in the test on AsPc-1 cells [5] and in the test on MiaPaCa-2 cells [6] was “significant inhibition of growth” throughout.
In the case of `O=C(O)/C=C/c1cnc(-c2ccc(O)c(C34CC5CC(CC(C5)C3)C4)c2)nc1` [Compound 16, (E)-3-[2-(3-(1-Adamantyl)-4-hydroxyphenyl)-5-pyrimidinyl]-2-propenoic acid], the EC50 in the test with FFMA-AML cells is 320 nM. The “annexin V-FITC-positive cells” value with TF(v-SRC) cells is “progressive increase in annexin V-FITC-positive cells with time”. Moreover, in the test with COLO357 cells [1], the “cells in which induction of apoptosis was noted” value is reported as 80%. Besides, the induction of apoptosis entry in the test on AsPc-1 cells [2] and with MiaPaCa-2 cells [3] was “Apoptosis was also noted” throughout. Moreover, the inhibition of growth entry in the test on COLO357 cells [4], in the test on AsPc-1 cells [5] and with MiaPaCa-2 cells [6] was “significant inhibition of growth” in each case.
